Experimental data from patent US20110039763A1, “TARGETED ANTIMICROBIAL MOIETIES” (C3 JIAN, INC., priority 2009, published 2011).

Columns and labels:
microorganisms [1] = experiment: Morphology, biofilm and growth disrupting peptides (Table 5); assay type: cell-based; design: key: A: Peptide aggregates; B: Less hyphal formation; Clumps; Diffuse clumps and small polyps; F: Diffuse growth; H: Thin; I: Growth inhibition; Microcolony formation; Rippled; Small polyps; Thick; W: Halo formation on top, microlonies on bottom
Source text: In certain embodiments peptides that induce alterations in phenotype or other biological activities can also be used as antimicrobial effector moieties.

microorganisms [2] = experiment: Peptide activities: targeting/binding, antimicrobial, growth or phenotype altering (Tables 7, 8); assay type: cell-based; details: peptides having multiple activities
Source text: In certain embodiments, peptides described herein can have multiple activities. Thus for example, a peptide can have both binding/targeting activity and antimicrobial activity. Such peptides can be used, e.g., in a chimeric construct, for any or all of these properties. Thus, for example, a peptide designated “B” in Table 8 can be used as a targeting peptide. If it is also designated G or M it can also be used for antimicrobial activity.
Table 8. Peptides Having Multiple Activities. B: Targeting/Binding Activity; M: Antimicrobial Activity; G: GROWTH or Phenotype Altering.

microorganisms [3] = experiment: Targeting peptide binding to target microorganisms (Tables 3, 10, 12); details: microorganism(s) the targeting peptide binds; binding in aqueous buffers varied with peptide solubility, preferably 1x PBS

Substance	Organism, effect (microorganisms [1]; MRSA)	Organism, effect (microorganisms [1]; S. pneumoniae)	Target(s) (microorganisms [3])	further results
ALCSVIKAIELGIINVHLQ [PF-366]	–	–	–	Organism, effect: C. jejuni (microorganisms [1]; C. jejuni): C. jejuni (D); Organism, effect: E. coli (microorganisms [1]): E. coli (C); Organism, effect: E. faecalis (microorganisms [1]; E. faecalis): E. faecalis (C); Organism, effect: MRSA (microorganisms [1]; MRSA): MRSA (D); Organism, effect: P. aeruginosa (microorganisms [1]; P. aeruginosa): P. aeruginosa (A); Organism, effect: S. epidermidis (microorganisms [1]; S. epidermidis): S. epidermidis (R); Organism, effect: S. pneumoniae (microorganisms [1]; S. pneumoniae): S. pneumoniae (C); Activities (microorganisms [2]): G B
EILNNNQVIKELTMKYKTQFESNLGGWTARARR [PF-580]	MRSA (M)	S. pneumoniae (C)	–	Organism, effect (microorganisms [1]; M. luteus): M. luteus (C); Organism, effect (microorganisms [1]; S. epidermidis): S. epidermidis (M); Activities (microorganisms [2]): G B
MGIIAGIIKVIKSLIEQFTGK [PF-007]	–	–	–	Organism, effect: E. coli (microorganisms [1]): E. coli (A); Organism, effect: E. faecalis (microorganisms [1]; E. faecalis): E. faecalis (A); Organism, effect: M. luteus (microorganisms [1]; M. luteus): M. luteus (A); Organism, effect: MRSA (microorganisms [1]; MRSA): MRSA (R); Organism, effect: S. epidermidis (microorganisms [1]; S. epidermidis): S. epidermidis (A); Activities (microorganisms [2]): G B
PF-658 (chain 1 PTTPPPTTPPEIPTGGTVIST; chain 2 PTTPPPTTPPEIPTGGTVIST; Peptide with targeting and/or antimicrobial activity)	MRSA (R)	S. pneumoniae (H)	Mycobacteria spp	–
PF-659 (chain 1 TVIST; chain 2 TVIST; Peptide with targeting and/or antimicrobial activity)	MRSA (R)	S. pneumoniae (C)	Mycobacteria spp	Organism, effect (microorganisms [1]; B. subtilis): B. subtilis (H); Organism, effect (microorganisms [1]; S. epidermidis): S. epidermidis (M)
PF-660 (chain 1 TDPQATAAPRRRTSPR; chain 2 TDPQATAAPRRRTSPR; Peptide with targeting and/or antimicrobial activity)	–	S. pneumoniae (H)	Mycobacteria spp	–
PF-661 (chain 1 PDEDIRRRAILPPAGPCRPMSPE; chain 2 PDEDIRRRAILPPAGPCRPMSPE; Peptide with targeting and/or antimicrobial activity)	MRSA (R)	–	Mycobacteria spp	–
PF-662 (chain 1 GKQSRAHGPVASRREFRRKSG; chain 2 GKQSRAHGPVASRREFRRKSG; Peptide with targeting and/or antimicrobial activity)	–	S. pneumoniae (A)	Mycobacteria spp	–
PF-663 (chain 1 ATLIPRKA; chain 2 ATLIPRKA; Peptide with targeting and/or antimicrobial activity)	–	S. pneumoniae (A)	Mycobacteria spp	–
PF-665 (chain 1 VLRVATAVGEVPTGL; chain 2 VLRVATAVGEVPTGL; Peptide with targeting and/or antimicrobial activity)	–	S. pneumoniae (H)	Mycobacteria spp	–
PF-666 (chain 1 PNRRSRPR; chain 2 PNRRSRPR; Peptide with targeting and/or antimicrobial activity)	–	S. pneumoniae (A)	Mycobacteria spp	–
PF-667 (chain 1 PAHQRLRIDQRLVADRDMVQDYES; chain 2 PAHQRLRIDQRLVADRDMVQDYES; Peptide with targeting and/or antimicrobial activity)	MRSA (R)	S. pneumoniae (R)	Mycobacteria spp	Organism, effect (microorganisms [1]; E. faecalis): E. faecalis (R); Organism, effect (microorganisms [1]; S. epidermidis): S. epidermidis (R)
PF-668 (chain 1 TNAESMALAFRGRVHMSVNIAGLT; chain 2 TNAESMALAFRGRVHMSVNIAGLT; Peptide with targeting and/or antimicrobial activity)	MRSA (R)	S. pneumoniae (M)	Mycobacteria spp	Organism, effect (microorganisms [1]; B. subtilis): B. subtilis (A); Organism, effect (microorganisms [1]; C. albicans): C. albicans (A); Organism, effect (microorganisms [1]; C. jeikeium): C. jeikeium (D); Organism, effect (microorganisms [1]; E. faecalis): E. faecalis (D); Organism, effect (microorganisms [1]; S. epidermidis): S. epidermidis (M)
PF-675 (EIIPISPTRRCEMHTMSSAEYRGL; Peptide with targeting and/or antimicrobial activity)	–	S. pneumoniae (C)	Mycobacteria spp	Organism, effect (microorganisms [1]; E. faecalis): E. faecalis (R)
PF-677 (TCRGAGMH; Peptide with targeting and/or antimicrobial activity)	MRSA (D)	S. pneumoniae (D)	Mycobacteria spp	Organism, effect (microorganisms [1]; E. faecalis): E. faecalis (R); Organism, effect (microorganisms [1]; S. epidermidis): S. epidermidis (R)
PF-680 (ADPHPTTGI; Peptide with targeting and/or antimicrobial activity)	MRSA (R)	–	Mycobacteria spp	–
PF-682 (RRGKSEQGLSRR; Peptide with targeting and/or antimicrobial activity)	–	S. pneumoniae (A)	Mycobacteria spp	–
PF-683 (LWPVA; Peptide with targeting and/or antimicrobial activity)	MRSA (R)	S. pneumoniae (H)	Mycobacteria spp	Organism, effect (microorganisms [1]; S. epidermidis): S. epidermidis (R)

Substance	Organism, effect (microorganisms [1]; MRSA)	Organism, effect (microorganisms [1]; S. pneumoniae)	Target(s) (microorganisms [3])	further results
PF-684 (RKLSLASGFALWRRSLV; Peptide with targeting and/or antimicrobial activity)	–	S. pneumoniae (C)	Mycobacteria spp	Organism, effect (microorganisms [1]; C. albicans): C. albicans (B); Organism, effect (microorganisms [1]; E. faecalis): E. faecalis (A)
PF-685 (PTLWLACL; Peptide with targeting and/or antimicrobial activity)	MRSA (M)	S. pneumoniae (M)	Mycobacteria spp	Organism, effect (microorganisms [1]; C. jeikeium): C. jeikeium (R); Organism, effect (microorganisms [1]; E. faecalis): E. faecalis (R); Organism, effect (microorganisms [1]; S. epidermidis): S. epidermidis (M)
PF-687 (AKRVLSLAVAPHRRQPVQGT; Peptide with targeting and/or antimicrobial activity)	–	S. pneumoniae (A)	Mycobacteria spp	–
PF-688 (ARNHAVIPAG; Peptide with targeting and/or antimicrobial activity)	–	S. pneumoniae (A)	Mycobacteria spp	–
PF-690 (MIPLAGDPVSSHRTVEFGVLGTYLVSGGSL; Peptide with targeting and/or antimicrobial activity)	MRSA (R)	S. pneumoniae (M)	Mycobacteria spp	Organism, effect (microorganisms [1]; E. faecalis): E. faecalis (R); Organism, effect (microorganisms [1]; S. epidermidis): S. epidermidis (R)
PF-691 (HRTVEFGVLGTYLVSGGSL; Peptide with targeting and/or antimicrobial activity)	–	S. pneumoniae (R)	Mycobacteria spp	–
PF-692 (GVAREDPLEPDPLAPIIDDSR; Peptide with targeting and/or antimicrobial activity)	MRSA (R)	–	Mycobacteria spp	–
PF-693 (PDPAR; Peptide with targeting and/or antimicrobial activity)	–	S. pneumoniae (A)	Mycobacteria spp	–
PF-694 (DLIRPLYSMSAPSVA; Peptide with targeting and/or antimicrobial activity)	MRSA (R)	S. pneumoniae (A)	Mycobacteria spp	–
PF-695 (ALSVMLGNIPLVVPNANQL; Peptide with targeting and/or antimicrobial activity)	MRSA (R)	S. pneumoniae (C)	Mycobacteria spp	Organism, effect (microorganisms [1]; E. faecalis): E. faecalis (R)
PF-696 (IRSGISAAYARPLR; Peptide with targeting and/or antimicrobial activity)	–	S. pneumoniae (H)	Mycobacteria spp	–
PF-697 (RADARAK; Peptide with targeting and/or antimicrobial activity)	–	S. pneumoniae (H)	Mycobacteria spp	Organism, effect (microorganisms [1]; C. albicans): C. albicans (H)
PF-698 (SSGRAGVKCRRPTGR; Peptide with targeting and/or antimicrobial activity)	–	S. pneumoniae (A)	Mycobacteria spp	Organism, effect (microorganisms [1]; C. albicans): C. albicans (H); Organism, effect (microorganisms [1]; E. faecalis): E. faecalis (A)
PF-699 (GRAGVKCRRPTGR; Peptide with targeting and/or antimicrobial activity)	–	S. pneumoniae (A)	Mycobacteria spp	–
PF-700 (LNWPFTGR; Peptide with targeting and/or antimicrobial activity)	–	S. pneumoniae (C)	Mycobacteria spp	–
PF-702 (LSGRLAGRR; Peptide with targeting and/or antimicrobial activity)	–	S. pneumoniae (H)	Mycobacteria spp	–
PF-704 (APAARAAL; Peptide with targeting and/or antimicrobial activity)	–	S. pneumoniae (C)	Mycobacteria spp	–
